Reference: patent US20190054022A1, “FORMULATIONS OF SITE-SPECIFIC, MICROPARTICULATE COMPOSITIONS AND THEIR USE TO IMPROVE OUTCOME AFTER ANEURSYMAL SUBARACHNOID HEMORRHAGE” (Edge Therapeutics, Inc., priority 2016, published 2019)
Like-named read-outs stand apart in the source and are kept apart here.

Key:
[1] = system: patients with aneurysmal SAH; conditions: in vivo; cited from earlier work
[2] = system: patients with SAH secured by endovascular coiling; conditions: cited from earlier work; for patients with primary end point: placebo 27%; for patients with poor outcome (extended Glasgow Outcome Scale score <1=4): placebo 24%
[3] = system: patients with SAH secured by surgical clipping; conditions: cited from earlier work
[4] = Mongrel dog SAH study: plasma and CSF nimodipine concentration; assay type: in vivo, mongrel dogs; conditions: oral 5.2 mg/kg daily, day 3 (highest), n=7
[5] = system: double hemorrhage dog model of SAH; assay: Mongrel dog SAH study: behavior, blood pressure, microthrombi, neuronal injury; assay type: in vivo, mongrel dogs; conditions: placebo microparticle plus oral nimodipine
Experimental: Blood was injected into the cisterna magna using the same procedure as on day 1 except that microparticles were not injected. Angiography was repeated on days 8 and 15. The diameter of the basilar artery was measured at 5 equally spaced points by two blinded observers and the means averaged. Angiographic vasospasm was assessed by comparing the diameters of basilar arteries from Days 1, 8 and 15 and the time course and severity of angiographic vasospasm was determined. Dogs were weighed weekly and examined daily for 14 days, including behavior examination [Zhou C, Yamaguchi […], Zhang J H. Role of p53 and apoptosis in cerebral vasospasm after experimental subarachnoid hemorrhage. J Cereb Blood Flow Metab 2005; 25:572-82.]. […] Indirect blood pressure was measured in awake dogs daily for the first 14 days and weekly thereafter. Dogs were euthanized by an intravenous overdose of sodium pentobarbital. They were perfused through the heart with PBS followed by 10% neutral buffered formalin. […] Neuronal degeneration and apoptosis were scored by a pathologist blinded to the assigned group on a semi-quantitative scale as normal, minimal, mild, moderate or severe. Microthrombi present in three (3) 100×100 μm fields were counted.

[6] = oral, total single day dose of 360 mg; cited from earlier work
[7] = system: double hemorrhage dog model of SAH; assay: Mongrel dog SAH efficacy study: angiographic vasospasm (basilar artery diameter); assay type: in vivo, mongrel dogs
Experimental: Dose translation from animal to human studies revisited. […] Dogs were euthanized on day 28 or 49. Dogs were anesthetized as described above, blood was collected and blood pressure, temperature, heart rate and oxygen saturation were monitored continuously while animals were under anesthesia. Blood gases were obtained before and after the injections. Cerebral angiography was performed through a 4F catheter inserted into the femoral artery and advanced under fluoroscopic guidance into the proximal portion of one vertebral artery using a guide wire. […] Images were captured digitally using identical exposure factors and magnification and an internal magnification standard was included in every angiogram. […] One half of the blood was injected, followed by injection of microparticles and then the remaining blood. The needle was withdrawn and the dogs were kept 30° head down for 15 minutes after which the femoral catheter was removed, the artery was ligated, and the incision was closed. For […] injection, the blood was injected into the cisterna magna and then the dog was placed prone in a stereotactic unit. […] Blood was injected into the cisterna magna using the same procedure as on day 1 except that microparticles were not injected. Angiography was repeated on days 8 and 15. The diameter of the basilar artery was measured at 5 equally spaced points by two blinded observers and the means averaged. Angiographic vasospasm was assessed by comparing the diameters of basilar arteries from Days 1, 8 and 15 and the time course and severity of angiographic vasospasm was determined. Dogs were weighed weekly and examined daily for 14 days, including behavior examination [Zhou C, Yamaguchi […], Zhang J H. Role of p53 and apoptosis in cerebral vasospasm after experimental subarachnoid hemorrhage. J Cereb Blood Flow Metab 2005; 25:572-82.]. […] Indirect blood pressure was measured in awake dogs daily for the first 14 days and weekly thereafter.

[8] = Nimodipine release in vivo: plasma concentration after subcutaneous injection; set-up: species or system Wistar rats; conditions: 20 mg/kg or 200 mg/kg
Experimental: A mobile phase of water:methyl alcohol:tetrahydrofuran was used (60:20:20) at 2 mL/min with detection at 235 nm.
Blood samples were collected from two alternating cohorts of 2 or 3 animals/cohort in the microparticle formulation-injected groups. Collection was immediately before injection and then 1, 12, and 24 hours post dose, and on days 4, 8, 11, and 15. After the last blood sample collection interval, the surviving animals were euthanized via carbon dioxide inhalation. Animals were euthanized by cervical dislocation and the carcasses were discarded.

R-type calcium current = target: T1, R-type calcium current (Rattus norvegicus, UniProt Q07652); conditions: at 40 nM concentration; cited from earlier work
T1 construct: R-type calcium current in the neurohypophysial nerve endings at 40 nM concentration; host or cells: neurohypophysial nerve endings
T1 sequence (Q07652 whole entry): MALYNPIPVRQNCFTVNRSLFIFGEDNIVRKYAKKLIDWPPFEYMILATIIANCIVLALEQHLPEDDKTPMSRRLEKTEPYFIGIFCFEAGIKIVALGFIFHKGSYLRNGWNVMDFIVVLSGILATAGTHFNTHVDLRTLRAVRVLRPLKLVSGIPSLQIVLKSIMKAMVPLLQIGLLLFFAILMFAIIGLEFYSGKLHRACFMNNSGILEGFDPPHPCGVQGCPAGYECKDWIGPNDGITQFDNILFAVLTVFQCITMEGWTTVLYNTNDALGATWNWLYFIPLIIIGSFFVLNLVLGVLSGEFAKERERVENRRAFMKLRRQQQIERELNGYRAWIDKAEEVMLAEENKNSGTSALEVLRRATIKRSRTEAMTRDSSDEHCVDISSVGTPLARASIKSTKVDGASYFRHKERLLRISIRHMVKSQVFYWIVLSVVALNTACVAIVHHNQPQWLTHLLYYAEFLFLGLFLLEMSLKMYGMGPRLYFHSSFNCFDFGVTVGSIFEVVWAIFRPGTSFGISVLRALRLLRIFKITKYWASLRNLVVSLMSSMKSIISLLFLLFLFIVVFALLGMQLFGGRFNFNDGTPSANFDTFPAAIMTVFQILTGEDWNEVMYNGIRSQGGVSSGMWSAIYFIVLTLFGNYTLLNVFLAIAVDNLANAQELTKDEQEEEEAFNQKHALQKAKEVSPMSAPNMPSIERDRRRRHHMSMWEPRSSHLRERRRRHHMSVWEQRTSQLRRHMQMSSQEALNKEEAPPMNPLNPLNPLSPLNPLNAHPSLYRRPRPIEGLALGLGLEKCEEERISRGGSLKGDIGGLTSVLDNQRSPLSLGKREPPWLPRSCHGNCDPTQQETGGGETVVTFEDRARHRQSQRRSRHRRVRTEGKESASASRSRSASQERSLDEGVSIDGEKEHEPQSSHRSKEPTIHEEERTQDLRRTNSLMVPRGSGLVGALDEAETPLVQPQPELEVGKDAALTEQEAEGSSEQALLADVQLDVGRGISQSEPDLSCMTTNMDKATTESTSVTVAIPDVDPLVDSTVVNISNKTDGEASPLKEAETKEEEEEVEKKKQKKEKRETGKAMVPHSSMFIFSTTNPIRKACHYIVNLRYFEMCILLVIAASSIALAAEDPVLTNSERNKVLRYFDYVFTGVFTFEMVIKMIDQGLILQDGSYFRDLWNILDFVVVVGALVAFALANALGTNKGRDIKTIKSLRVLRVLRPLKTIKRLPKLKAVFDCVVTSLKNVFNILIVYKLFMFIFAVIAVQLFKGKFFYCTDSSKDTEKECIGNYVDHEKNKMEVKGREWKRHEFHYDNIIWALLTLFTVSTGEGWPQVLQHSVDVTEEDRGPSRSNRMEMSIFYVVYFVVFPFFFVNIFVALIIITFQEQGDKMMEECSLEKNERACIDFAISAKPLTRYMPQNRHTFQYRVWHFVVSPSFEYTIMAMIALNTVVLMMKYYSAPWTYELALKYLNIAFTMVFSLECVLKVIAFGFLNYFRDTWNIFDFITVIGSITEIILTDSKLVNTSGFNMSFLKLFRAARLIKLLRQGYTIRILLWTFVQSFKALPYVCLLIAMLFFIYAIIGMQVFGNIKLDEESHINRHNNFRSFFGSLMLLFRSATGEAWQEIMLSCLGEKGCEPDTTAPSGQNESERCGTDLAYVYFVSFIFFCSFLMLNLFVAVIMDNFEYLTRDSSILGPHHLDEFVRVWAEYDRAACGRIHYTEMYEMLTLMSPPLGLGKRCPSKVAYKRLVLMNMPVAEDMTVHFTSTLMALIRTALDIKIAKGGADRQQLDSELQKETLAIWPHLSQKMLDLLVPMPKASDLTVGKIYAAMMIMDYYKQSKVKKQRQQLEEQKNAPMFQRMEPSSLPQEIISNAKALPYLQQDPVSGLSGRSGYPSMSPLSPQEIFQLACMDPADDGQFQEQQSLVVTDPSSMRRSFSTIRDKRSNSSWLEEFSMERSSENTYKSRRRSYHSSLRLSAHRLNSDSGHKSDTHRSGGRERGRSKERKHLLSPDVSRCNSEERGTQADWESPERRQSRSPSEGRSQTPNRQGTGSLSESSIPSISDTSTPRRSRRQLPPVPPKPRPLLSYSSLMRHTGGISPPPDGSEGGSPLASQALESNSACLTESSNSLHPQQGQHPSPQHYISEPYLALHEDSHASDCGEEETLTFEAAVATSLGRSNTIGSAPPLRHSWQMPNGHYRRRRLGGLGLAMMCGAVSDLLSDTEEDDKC

N-type calcium current = N-type calcium current (Homo sapiens, UniProt Q00975); conditions: at 300 nM to 500 nM; cited from earlier work
N-type calcium current, sequence (Q00975 whole entry): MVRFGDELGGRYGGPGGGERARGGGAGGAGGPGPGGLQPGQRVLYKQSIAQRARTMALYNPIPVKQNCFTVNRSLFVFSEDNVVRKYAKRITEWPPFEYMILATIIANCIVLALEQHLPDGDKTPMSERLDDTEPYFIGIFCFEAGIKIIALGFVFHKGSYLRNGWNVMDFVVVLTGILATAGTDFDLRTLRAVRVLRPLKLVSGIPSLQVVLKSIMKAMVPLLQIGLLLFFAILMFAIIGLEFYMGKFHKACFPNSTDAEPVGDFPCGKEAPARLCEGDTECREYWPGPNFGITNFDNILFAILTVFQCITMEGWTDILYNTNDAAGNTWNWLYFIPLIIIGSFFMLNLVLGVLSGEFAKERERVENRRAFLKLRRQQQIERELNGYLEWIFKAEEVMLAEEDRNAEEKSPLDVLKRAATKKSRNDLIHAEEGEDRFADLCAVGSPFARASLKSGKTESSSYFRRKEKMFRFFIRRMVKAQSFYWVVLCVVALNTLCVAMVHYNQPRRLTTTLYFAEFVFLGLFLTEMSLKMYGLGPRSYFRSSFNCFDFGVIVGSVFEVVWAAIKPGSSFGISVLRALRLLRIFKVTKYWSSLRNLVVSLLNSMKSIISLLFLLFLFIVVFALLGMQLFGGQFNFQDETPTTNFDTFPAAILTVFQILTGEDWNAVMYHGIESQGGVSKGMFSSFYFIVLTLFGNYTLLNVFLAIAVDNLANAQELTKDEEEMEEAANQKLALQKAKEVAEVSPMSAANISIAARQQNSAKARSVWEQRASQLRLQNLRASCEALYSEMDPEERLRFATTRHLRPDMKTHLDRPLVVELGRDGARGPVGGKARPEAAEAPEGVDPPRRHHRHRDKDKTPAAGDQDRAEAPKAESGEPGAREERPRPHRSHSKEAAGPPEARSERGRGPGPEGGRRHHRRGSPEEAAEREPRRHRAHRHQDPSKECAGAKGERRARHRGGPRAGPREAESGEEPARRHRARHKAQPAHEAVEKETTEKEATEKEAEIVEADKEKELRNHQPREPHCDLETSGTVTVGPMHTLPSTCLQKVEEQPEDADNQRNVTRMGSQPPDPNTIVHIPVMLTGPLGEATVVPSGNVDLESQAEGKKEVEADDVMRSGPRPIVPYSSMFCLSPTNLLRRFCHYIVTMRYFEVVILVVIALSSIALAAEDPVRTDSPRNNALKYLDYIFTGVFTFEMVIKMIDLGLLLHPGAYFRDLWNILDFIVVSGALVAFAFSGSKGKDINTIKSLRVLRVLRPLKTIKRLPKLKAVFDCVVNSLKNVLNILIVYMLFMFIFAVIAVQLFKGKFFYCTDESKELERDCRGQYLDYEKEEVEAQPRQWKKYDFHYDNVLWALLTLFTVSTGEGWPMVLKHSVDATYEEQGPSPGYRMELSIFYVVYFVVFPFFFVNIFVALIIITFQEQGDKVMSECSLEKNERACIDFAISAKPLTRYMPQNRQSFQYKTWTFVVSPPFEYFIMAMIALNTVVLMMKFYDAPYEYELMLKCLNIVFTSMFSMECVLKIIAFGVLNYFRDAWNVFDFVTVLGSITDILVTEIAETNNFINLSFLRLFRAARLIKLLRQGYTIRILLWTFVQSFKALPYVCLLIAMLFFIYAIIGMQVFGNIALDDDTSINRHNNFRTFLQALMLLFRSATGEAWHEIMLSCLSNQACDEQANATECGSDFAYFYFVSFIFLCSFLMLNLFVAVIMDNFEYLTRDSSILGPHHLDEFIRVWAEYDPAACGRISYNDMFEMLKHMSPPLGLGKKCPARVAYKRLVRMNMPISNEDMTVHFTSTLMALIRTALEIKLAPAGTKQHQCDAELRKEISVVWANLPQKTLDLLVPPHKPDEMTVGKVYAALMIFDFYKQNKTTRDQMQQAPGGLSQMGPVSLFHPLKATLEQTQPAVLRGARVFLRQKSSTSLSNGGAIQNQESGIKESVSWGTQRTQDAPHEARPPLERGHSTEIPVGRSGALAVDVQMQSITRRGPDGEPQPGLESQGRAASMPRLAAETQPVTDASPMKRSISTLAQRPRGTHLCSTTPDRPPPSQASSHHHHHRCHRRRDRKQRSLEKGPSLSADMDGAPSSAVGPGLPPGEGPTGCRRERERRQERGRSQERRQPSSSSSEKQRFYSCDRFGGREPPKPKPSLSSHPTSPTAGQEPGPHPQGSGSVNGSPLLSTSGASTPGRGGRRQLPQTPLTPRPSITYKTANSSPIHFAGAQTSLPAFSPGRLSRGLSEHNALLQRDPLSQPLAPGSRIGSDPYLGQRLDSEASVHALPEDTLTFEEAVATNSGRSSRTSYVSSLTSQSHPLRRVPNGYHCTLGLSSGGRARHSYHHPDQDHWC

[9] = system: K+ and Na+ currents, and L, P/Q and T-type calcium currents; conditions: cited from earlier work
[10] = placebo microparticles + oral nimodipine 5.2 mg/kg daily for 21 days, n = 8

Molecule: COc1ccccc1Oc1c(NS(=O)(=O)c2ccc(C)cn2)nc(-c2ccnc(-c3nnn[nH]3)c2)nc1OCCO [clazosentan]
- incidence of angiographic vasospasm after aneurysmal SAH [1]: significantly reduced the incidence of angiographic vasospasm
- patients with primary end point ([2]; 5 mg/h, 47/194): 24%
- odds ratio, primary end point ([2]; 5 mg/h, 95% CI 0.479-1.289, P=0.340): 0.786
- odds ratio, poor outcome ([2]; 5 mg/h, 95% CI 0.546-1.544, P=0.748): 0.918
- patients with poor outcome (extended Glasgow Outcome Scale score <1=4) ([2]; 5 mg/h): 25%
- patients with primary end point ([2]; 15 mg/h, 28/188): 15%
- odds ratio, primary end point ([2]; 15 mg/h, 95% CI 0.275-0.818, P=0.007): 0.474
- odds ratio, poor outcome ([2]; 15 mg/h, 95% CI 0.802-2.227, P=0.266): 1.337
- post aneurysmal SAH vasospasm-related morbidity/all-cause mortality ([2]; 15 mg/h): significantly reduced
- patients with poor outcome (extended Glasgow Outcome Scale score <1=4) ([2]; 15 mg/h): 28%
- adverse events versus placebo ([2]; 5 or 15 mg/h): Pulmonary complications, anemia, and hypotension were more common
- outcome (extended Glasgow Outcome Scale) ([2]; 5 or 15 mg/h): neither dose improved outcome
- patients meeting primary composite endpoint (week 6): all-cause mortality, vasospasm-related new cerebral infarcts, delayed ischemic neurological deficit, rescue therapy ([3]; 5 mg/h up to 14 days, 161 of 764, placebo 25%): 21%
- relative risk reduction, primary endpoint ([3]; 5 mg/h, 95% CI −4 to 33, p=0.10): 17%
- patients with poor functional outcome (GOSE score <1=4) ([3]; 5 mg/h, 224 patients, placebo 25%): 29%
- Mortality (week 12) ([3]; 5 mg/h, both groups): 6%
- adverse events versus placebo ([3]; 5 mg/h): Lung complications, anaemia, and hypotension were more common
- effect on mortality and vasospasm-related morbidity or functional outcome ([3]; 5 mg/h): no significant effect
- relative risk reduction, poor functional outcome ([3]; 5 mg/h, −45 to 4, p=0.10): −18%

Molecule: COCCOC(=O)C1=C(C)NC(C)=C(C(=O)OC(C)C)C1c1cccc([N+](=O)[O-])c1 (centres unmarked) [nimodipine, Isopropyl 2-methoxyethyl 1,4-dihydro-2,6-dimethyl-4-(m-nitrophenyl)-3,5-pyridinedicarboxylate]
- concentration of nimodipine in CSF [4]: 1.56 ± 1.17 ng/mL
- dogs with microthrombi [5]: one
- bioavailability [6]: about 28%
- % change compared to day 1, Day 8 [7, 10]: (−27.9 ± 3.0) %
- % change compared to day 1, Day 15 [7, 10]: (−11.7 ± 4.5) %
- Angiographic diameter of basilar artery (mm), Day 8 [7, 10]: 1.08 ± 0.12 mm
- Angiographic diameter of basilar artery (mm), Day 15 [7, 10]: 1.32 ± 0.17 mm
- Angiographic diameter of basilar artery (mm), Day 1 ([7]; placebo microparticles + oral nimodipine 5.2 mg/kg daily for 21 days, n = 8, baseline): 1.51 ± 0.13 mm
- basilar artery diameter 8 and 15 days after SAH versus day 1 ([7]; placebo microparticles with oral nimodipine, ANOVA P=0.001): significant reductions in basilar artery diameter
- release of nimodipine over time in vivo (plasma) [8]: Sustained release of nimodipine over time was observed

Molecule: SNX-482
- block of R-type calcium current (R-type calcium current): blocks
- block of N-type calcium current (N-type calcium current): 30-50%
- effect on other currents [9]: no effect is observed
